This is an account of results in paper PMC6036970, “Natural and redesigned wasp venom peptides with selective antitumoral activity” (Beilstein Journal of Organic Chemistry, 2018).

The subject of data set [1] is MCF-7 breast cancer cells. Kind of data set: MTT cytotoxicity assay on MCF-7 cancer cells. It is filed as cell-based. The note with it: for IC50 against MCF-7 / IC50: MCF-7, 24 h, read at 570 nm; for IC50 against MCF-7 / IC50 / LD50 / concentration achieving >50% of cancer cell lysis: MTT, triplicate; for inhibition of cell viability: 50 μmol L^−1 after 2 h; for inhibition of cancer cell growth: dose of ≈50 μmol L^−1; for IC50: read-out: IC50 against MCF-7; for effect on cell viability 2 h post-exposure: after 2 h; for LD50 / concentration achieving >50% of cancer cell lysis: MCF-7, after 24 h. The method, then: (§1) MCF-7 cells (ATCC) were maintained in RPMI 1640 medium supplemented with 10% heat inactivated FBS and 100 μg mL^−1 penicillin/10 μg mL^−1 streptomycin. One day before the assays, the cells were plated in 96-well microtiter plates with a density of 2.0 × 10^4 cells/well at 37 °C and 5% CO2. On the next day, cells were treated with peptides serial dilutions (0.09–50 μmol L^–1), incubated in individual microtiter plates for 2 and 24 h and MTT assays were performed after treatment. Human breast epithelial cells MCF-10A (ATCC) were maintained in a mixture of Dulbecco’s Modified Eagle’s Medium and Ham’s F12 nutrient mixture supplemented with 5% inactivated horse serum, 10 μg mL^−1 insulin, 0.02 μg mL^−1 human epidermal growth factor, 0.5 μg mL^−1 hydrocortisone, 0.10 μg mL^−1 choleric toxin, 100 U mL^−1 penicillin, and 100 μg mL^−1 streptomycin. The cells were preincubated for 24 h, plated in 96-well microtiter plates with a density of 2.0 × 10^4 cells/well at 37 °C and 5% CO2. On the next day, cells were treated with peptides serial dilutions (25 to 100 μmol L^−1), incubated in individual microtiter plates for 4 and 24 h and MTT assay was performed after treatment. Experiments were performed in triplicate.
(§2) Briefly, MTT (Sigma-Aldrich) was dissolved in water and filtered to make up a […] solution. 30 μL of this solution were added to all the wells which already contained peptide-treated cells and kept at 37 °C for 45 minutes. Subsequently, the solution was discarded and replaced with 150 μL/well of DMSO and followed by gentle shaking for 15 minutes. Finally, the microplates were read on an ELISA reader at 570 nm. Experiments were performed in triplicate.

Another data set has as its system human red blood cells. The note with it: ref Torres et al. [9]–[10]; cited from earlier work. The text has this: Table 1 Theoretical physicochemical properties and hemolytic activity of decoralin and its synthetic analogs.^a
A further data set concerns MCF-10A normal cells. Kind of data set: MTT cytotoxicity assay on MCF-10A normal cells. It counts as cell-based, human. The note with it: for cytotoxicity against MCF-10A normal cells: up to higher concentrations (≈100 μmol L^−1). The method, then: as §1, §2
(Formazan colour is commonly taken as a measure of viable cells.)

The next data set has as its system MCF-7 cells. Kind of data set: AFM measurement of cell membrane roughness. It counts as cell-based. The note with it: MCF-7, 50 μmol L^−1, 24 h, AFM contact mode, Ra and Rq. Here is the method:
The AFM imaging of MCF-7 cells untreated (control) and treated with peptide (50 μmol L^−1 solutions of Dec-NH2 and [Leu]^8-Dec-NH2, which presented low activity when compared to other analogs and was used here as a treated control) was performed using an Agilent Technologies 5500 AFM/SPM microscope that was in contact mode and a Nanosensors™ PPP-CONT probe (NanoSensors; PPP-Cont-20, PointProbe-Plus Silicon-SPM-Sensor). The material properties and dimensions of the AFM tips used in this experiment were as follows: resonance frequency of 6–21 kHz, force constant of 0.02–0.77 N m^−1, cantilever length of 450 ± 10 μm, cantilever width of 50 ± 7.5 μm, cantilever thickness of 2 ± 1 μm, tip height of 10–15 μm and resistivity of 0.01–0.02 Ω cm. The assays were performed in triplicate; image processing and roughness determinations were performed with the aid of the Gwyddion software (http://gwyddion.net/download.php). In order to compare the cell surface, we used two roughness parameters, the mean roughness (Ra) and the mean square of Z data (Rq), where N is the difference between the highest and the lowest points in the analyzed area. […]
The root mean square of the Z values Rq is the standard deviation of the N values in the area analyzed and is given by Equation 2: […]

In data set [2] the test system is Gram-positive bacteria, Gram-negative bacteria, and fungi. The settings on record: ref Torres et al. [9]; cited from earlier work.

Where no end group is shown, it is not given here.

Turning to “SLLSLFRKLI-NH2 [[Phe]^6-Des[Thr]^11-Dec-NH2, synthetic analog of Dec-NH2]”, the “IC50 against MCF-7” value in data set [1] was found to be 50.0 µM. Also, in data set [1] (MCF-7, MTT), the “inhibition of cell viability” value is listed as “inhibited cell viability the most” and the “inhibition of cancer cell growth” value is “substantial inhibition”. For the same substance, the “MHC (maximal non-hemolytic concentration)” value with human red blood cells was 12.50 µmol/L.

Turning to “SFLSLIRKLIT-NH2 [[Phe]^2-Dec-NH2, synthetic analog of Dec-NH2]”, in data set [1], the “IC50 against MCF-7” value came out at 50.0 µM. Moreover, in data set [1] (MCF-7, MTT), the “inhibition of cell viability” value was “inhibited cell viability the most” and the “inhibition of cancer cell growth” value was “substantial inhibition”. For the same substance, in the data set with human red blood cells, the “MHC (maximal non-hemolytic concentration)” value is 3.12 µmol/L.

As for SLLSLFRKLIT-NH2 [[Phe]^6-Dec-NH2], the IC50 in data set [1] is over 50 µM. In data set [1] (MCF-7, MTT), the “effect on cell viability 2 h post-exposure” value is “did not show significant inhibition”. Moreover, the “MHC (maximal non-hemolytic concentration)” value in the data set with human red blood cells is 3.12 µmol/L.

Regarding SLLPLIRKLIT-NH2 [[Pro]^4-Dec-NH2], the IC50 in data set [1] stood at 25 µM. Besides, the “MHC (maximal non-hemolytic concentration)” value with human red blood cells was 12.50 µmol/L.

Regarding “RLLSLIRKLIT-NH2 [[Arg]^1-Dec-NH2, synthetic analog of Dec-NH2]”, the “IC50 against MCF-7” value in data set [1] stood at 50.0 µM. In data set [1] (MCF-7, MTT), the “effect on cell viability 2 h post-exposure” value was “significant decreased cell viability” and the “inhibition of cancer cell growth” value is “substantial inhibition”. Also, the “MHC (maximal non-hemolytic concentration)” value in the data set on human red blood cells was 25.00 µmol/L.

With SLLSLIRKLIW-NH2 [[Trp]^11-Dec-NH2], the IC50 in data set [1] came to 25 µM. In addition, the “MHC (maximal non-hemolytic concentration)” value with human red blood cells is 1.56 µmol/L.

Consider SLLSLIRKLIT-NH2 [Dec-NH2], for which, in data set [1], the IC50 stood at 12.5 µM and the “LD50 / concentration achieving >50% of cancer cell lysis” value amounted to 12.5 µmol/L. The “cytotoxicity against MCF-10A normal cells” value with MCF-10A normal cells is recorded as “no significant cytotoxicity”. The “MHC (maximal non-hemolytic concentration)” value with human red blood cells is 1.56 µmol/L.

For SLLSLIRKLLT-NH2 [[Leu]^10-Dec-NH2], in data set [1], the IC50 was determined as 12.5 µM and the “LD50 / concentration achieving >50% of cancer cell lysis” value amounted to 12.5 µmol/L. The “cytotoxicity against MCF-10A normal cells” value in the data set on MCF-10A normal cells was “no significant cytotoxicity”. Moreover, the “MHC (maximal non-hemolytic concentration)” value in the data set with human red blood cells is 25.00 µmol/L.

For SLLSLIRLLIT-NH2 [[Leu]^8-Dec-NH2], the “change of membrane roughness” value with MCF-7 cells was “did not significantly change membrane roughness”. Also, in data set [1], the IC50 is over 50 µM. For the same substance, in data set [1] (MCF-7, MTT), the “activity against MCF-7 cells compared to the negative control” value was “did not present significant activity”. For the same substance, in data set [2], the “antimicrobial activity (order of magnitude)” value is recorded as ~10^1 μmol L^−1. Besides, in the data set with MCF-10A normal cells (lowest concentration tested (25 μmol L^−1)), the “cytotoxicity towards normal MCF-10A cells” value is reported as “cytotoxic”. The “MHC (maximal non-hemolytic concentration)” value with human red blood cells is 50.00 µmol/L.

In general, IC50 refers to the midpoint of a concentration-inhibition curve.
